Laboratory results from patent US4939122A, “Lipophile derivatives of muramylpeptides having properties of activating macrophages and compositions containing them” (priority 1984, dated 1990).
Values joined by “and” are separate entries in the source; they are usually repeats but may differ in a detail not shown here. Equal entries are not always repeated. Where two headings read alike, the source gives them in different places.

How the values were obtained:
Klebsiella pneumoniae = test: Anti-infectious activity in Swiss mice infected i.v. with Klebsiella pneumoniae; format: in vivo; settings: for protective activity against lethal Klebsiella pneumoniae infection (in words): summary of observations
Description: In the Tables VII to XI are indicated the conditions in which the substances were administered and, according to the considered cases, the number of mice surviving 10 or 15 days later and the corresponding percentages of protection with respect to controls.

[1] = Retention of the muramylpeptide in liposomes incubated in MEM-FCS medium at 37° C.; format: physicochemical
Description: Liposomes produced under the same conditions, but with muramylpeptides labeled with tritium have enabled the following observations. […] The incorporation of the MDP-GDP and the stability of the latter, has also been verified in reaction tests with anti-MDP monoclonal antibodies. After incubation of these liposomes in the same medium at 37° C. for 72 hours, there is observed a constant agglutination of the liposomes with the antibody (95% of the liposome being agglutinated), this observation bearing witness to the practical absence of any loss of MDP-GDP. […] The leakage, if it was produced, would have been manifested by a decrease in the intensity of agglutination with time.

[2] = Pyrogenicity in rabbits (European Pharmacopoea); format: in vivo, rabbit; settings: 1 mg/kg; groups of three rabits, individual animals
Excerpt: Certain of the compounds according to the invention show at relatively high doses, a certain pyrogenicity, whose impact is however reduced, taking into account the particularly higher therapeutic index from which they appear to benefit. This being the case, the muramylpeptides in which the group of modification by the two lipophile chains is fixed to the 6 position of the saccharide group, and of which the peptide chain is terminated by a glutamy-alpha-ester-gamma-amide group, are particularly advantageous by reason of their more reduced pyrogenicity. Testimony thereof is borne by comparative pyrogenicity measurements carried out on groups of three rabits with the two compounds more particularly studied, according to the procedure of the European Pharmacopoea, Vol. 2, 1971, pages 58-60. In fact, the following results are obtained, expressed by temperature observations observed in experimental animals to which had previously been administered 1 mg/kg of the compounds studied: for the MDP-GDP : 1°; 0.9° and 1° C.; for the 6 -0-GDP-MDPG-OnBu : 0.2°; 0.3° and 0.5° C.

bovine serumalbumin = test: Adjuvant activity in the Swiss female mouse, passive hemagglutination titer; format: in vivo; settings: for Primary response, passive hemagglutination titer: 100 micrograms with 500 micrograms of bovine serumalbumin at day 0, day 21, serums titrated in pools; for Secondary response, passive hemagglutination titer: booster of antigen alone at day 30, day 36, titrated separately
Description: At day 0, 100 micrograms of C474 were injected with 500 micrograms of bovine serumalbumin. At day 30, the animals received a booster of 100 micrograms of antigen alone. The following results were obtained:
The titers are expressed in Log 2 of the passive hemagglutination titer. At day 21, the serums were titrated in pools; at day 36, they were titrated separately.

Candida albicans = test: Protection of mice infected by the venous route with Candida albicans; format: in vivo
[3] = tested on: influenza virus suspension APR/8; format: in vivo; settings: preventive, 0.1 mg per mouse
[4] = Table X, 100 μg i.v. at day -1, 10^4 K. pneumoniae
[5] = Table XI, 2 × 10^6 Candida albicans, muramylpeptide 100 μg/day/4 days i.v. (-4 to -1), amphotericin B 3 μg subcutaneously on the day of infection
[6] = Table XI, 2 × 10^6 Candida albicans, muramylpeptide 100 μg/day/4 days i.v., amphotericin B 3 μg subcutaneously
[7] = Table IX, 5 × 10^4 K. pneumoniae, Gentamicin 10 μg subcutaneously 2 hours after infection, MDP or MDP-GDP 30 μg intravenously 24 hours before
[8] = Table VII, aqueous suspension, 100 μg i.v. at day -1, 10^4 K. pneumoniae

| Molecule | Protection (%) (Klebsiella pneumoniae; [4]) | Survival (15 d) (Klebsiella pneumoniae; [4]) | retention of the muramylpeptide in the liposomes (in words) [1] | protective activity against lethal Klebsiella pneumoniae infection (in words) (Klebsiella pneumoniae) | Survival (10 d) (Candida albicans; [5]) | Protection (%) (Klebsiella pneumoniae; [8]) | Survival (15 d) (Klebsiella pneumoniae; [8]) | also measured |
| --- | --- | --- | --- | --- | --- | --- | --- | --- |
| 6-O-(beta, gamma-dipalmitoyl-L-glycerol)-capryl -N-acetyl-muramyl-L-alanyl-D-glutamine-n-butyl ester [6-0-GDP-aminocaproyl-MDPG-OnBu] | 56% | 9/16 | Quite similar observations |  |  |  |  |  |
| 6-O-(beta, gamma-dipalmitoyl-L-glyceryl)-N-acetyl-muramyl-L-alanyl-D-glutamine-n-buty l-ester [6-0-GDP-MDPG-OnBu] |  |  | Quite similar observations | protective activity comparable |  |  |  | temperature observations (pyrogenicity) [2]: 0.2 °C and 0.3 °C and 0.5 °C; Primary response, passive hemagglutination titer (bovine serumalbumin): 2.64 Log 2; Secondary response, passive hemagglutination titer (bovine serumalbumin): 8.6 Log 2 |
| C[C@@H]1[C@H](O)[C@@H](C)/C=C/C=C/C=C/C=C/C=C/C=C/C=C/[C@H](O[C@@H]2O[C@H](C)[C@@H](O)[C@H](N)[C@@H]2O)C[C@@H]2O[C@](O)(C[C@@H](O)C[C@@H](O)[C@H](O)CC[C@@H](O)C[C@@H](O)CC(=O)O[C@H]1C)C[C@H](O)[C@H]2C(=O)O [Amphotericin B, reference compound] |  |  |  |  | 2/16 |  |  | Protection (Candida albicans; [6]): 13 |
| CCCCCCCCCCCCCCCC(=O)OCC(COC(=O)[C@H](C)NC(=O)CC[C@@H](NC(=O)[C@@H](C)NC(=O)[C@@H](C)O[C@H]1[C@H](O)[C@@H](CO)OC(O)[C@@H]1NC(C)=O)C(N)=O)OC(=O)CCCCCCCCCCCCCCC (stereo partly drawn) [MDP(D,D)-L-Ala-GDP, alpha (N-acetyl-muramyl-D-alanyl-D-isoglutaminyl-L-alanine) beta, gamma-dipalmitoyl-sn-glycerol] | 25% | 6/16 | Quite similar observations | although active, is less so than MDP-L-Ala-GDP |  |  |  |  |
| CCCCCCCCCCCCCCCC(=O)OC[C@@H](COC(=O)CC[C@@H](NC(=O)[C@H](C)NC(=O)[C@@H](C)O[C@H]1[C@H](O)[C@@H](CO)OC(O)[C@@H]1NC(C)=O)C(N)=O)OC(=O)CCCCCCCCCCCCCCC (stereo partly drawn) [MDP-GDP, alpha (N-acetyl-muramyl-L-alanyl-D-isoglutamine), beta, gamma-dipalmitoyl-sn-glycerol] |  |  |  | protective activity comparable | 3/16 | 65% | 32/48 | Primary response, passive hemagglutination titer (bovine serumalbumin): 3.64 Log 2; Secondary response, passive hemagglutination titer (bovine serumalbumin): 10.27 Log 2; Protection (%) (Klebsiella pneumoniae; [7]): 16%; Survival (15 d) (Klebsiella pneumoniae; [7]): 4/24; protective activity when injected in liposomes (in words) (Klebsiella pneumoniae; in liposomes): the most active; Protection (Candida albicans; [6]): 19; Protection (Candida albicans; Table XII, aqueous suspension IOO μg × 4): 75%; Survival (10 d) (Candida albicans; Table XII, aqueous suspension IOO μg × 4, days -4, -3, -2, and -1, 10^6 Candida albicans): 6/8; activity against Candida (in words) (Candida albicans; in vivo): active; survival ([3]; orally): 56%; survival ([3]; subcutaneously): 44% |
| CCCCCCCCCCCCCCCC(=O)OCC(COC(=O)[C@H](C)NC(=O)CC[C@@H](NC(=O)[C@H](C)NC(=O)[C@@H](C)O[C@H]1[C@H](O)[C@@H](CO)OC(O)[C@@H]1NC(C)=O)C(N)=O)OC(=O)CCCCCCCCCCCCCCC (stereo partly drawn) [MDP-L-Ala-GDP, alpha (N-acetyl-muramyl-L-alanyl-D-isoglutaminyl-L-alanine), beta, gamma-dipalmitoyl-sn-glycerol] | 63% | 12/16 | Quite similar observations |  |  |  |  |  |
| CCCCOC(=O)[C@@H](CCC(N)=O)NC(=O)[C@H](C)NC(=O)[C@@H](C)O[C@H]1[C@H](O)[C@@H](CO)OC(O)[C@@H]1NC(C)=O (some centres unmarked) [MDPG-OnBu, reference compound] |  |  |  |  |  | 62.5% | 20/32 |  |
| Gentamicin [reference compound] |  |  |  |  |  |  |  | Protection (%) (Klebsiella pneumoniae; [7]): 21%; Survival (15 d) (Klebsiella pneumoniae; [7]): 5/24 |
| alpha (N-acetyl-muramyl-D-alanyl-D-isoglutamine), beta, gamma-dipalmitoyl-sn-glycerol [MDP(D,D)-GDP] |  |  | Quite similar observations | protective activity comparable | 0/16 | 83.3% | 20/24 |  |
